Experimental data from ChEMBL document CHEMBL4420076, “Amylin and calcitonin receptor agonist” (2017).
Numbered stars: 1 amine (or outer) side, 2 acyl side, 3 side chain; on linkers, the order of the positions; unused ones are H or OH. Side chains are listed from the residue outwards. Peptide text beside a SMILES is read from it. * marks the point of attachment. C20 diacid = O=C(O)CCCCCCCCCCCCCCCCCCC(=O)*; γGlu = O=C(O)[C@H](CCC(=O)[*:2])N[*:1]

Experiments:
[1] = Stability in pH 7.5 buffer assessed as compound recovery at 1 uM by Thioflavin T based fluorescence assay; assay type: physicochemical; conditions: read-out: Drug recovery
Calcitonin receptor [2] = target: T1, Calcitonin receptor (Homo sapiens, UniProt P30988); assay: Agonist activity at human calcitonin receptor expressed in BHK570 cells assessed as increase in intracellular cAMP concentration incubated for 3 hrs in absence of albumin by CRE luciferase reporter gene assay; assay type: functional, cell-based
T1 sequence (P30988 whole entry): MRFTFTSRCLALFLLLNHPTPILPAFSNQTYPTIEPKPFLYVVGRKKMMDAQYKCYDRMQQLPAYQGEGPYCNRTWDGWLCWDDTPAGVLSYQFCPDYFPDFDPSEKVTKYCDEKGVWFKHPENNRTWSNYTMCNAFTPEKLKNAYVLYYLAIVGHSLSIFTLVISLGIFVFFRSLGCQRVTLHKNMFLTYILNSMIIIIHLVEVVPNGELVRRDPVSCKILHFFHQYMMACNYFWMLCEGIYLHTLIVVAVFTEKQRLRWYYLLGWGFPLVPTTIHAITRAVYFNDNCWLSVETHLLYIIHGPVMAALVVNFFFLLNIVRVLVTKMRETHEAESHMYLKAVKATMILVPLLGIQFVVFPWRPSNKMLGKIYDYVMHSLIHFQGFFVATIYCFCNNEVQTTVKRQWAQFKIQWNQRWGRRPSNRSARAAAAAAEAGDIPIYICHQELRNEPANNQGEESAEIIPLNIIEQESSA

[3] = Solubility in 100 mM bistrispropane buffer at pH 6.0 incubated for 18 hrs by UPLC analysis; assay type: physicochemical
[4] = Solubility in 100 mM bistrispropane buffer at pH 7.5 incubated for 18 hrs by UPLC analysis; assay type: physicochemical
[5] = Solubility in 100 mM glycylglycine buffer at pH 5.0 incubated for 18 hrs by UPLC analysis; assay type: physicochemical
[6] = target: T2, Amylin receptor AMY3; CALCR/RAMP3 (Homo sapiens, UniProt O60896+P30988); assay: Agonist activity at human amylin receptor expressed in BHK570 cells co-expressing RAMP3 assessed as increase in intracellular cAMP concentration incubated for 3 hrs in absence of albumin by CRE luciferase reporter gene assay; assay type: functional, cell-based
T2 sequence (P30988 whole entry): T1 sequence (P30988 whole entry)
T2 sequence (O60896 whole entry): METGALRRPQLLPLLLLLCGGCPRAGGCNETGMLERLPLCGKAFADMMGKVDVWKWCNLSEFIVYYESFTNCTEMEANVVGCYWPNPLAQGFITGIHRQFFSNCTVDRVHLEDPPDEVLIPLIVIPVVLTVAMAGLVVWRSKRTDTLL

[7] = Stability in pH 7.5 buffer assessed as lag time for fibril formation at 1 uM by Thioflavin T based fluorescence assay; assay type: physicochemical; conditions: pH 7.5, 1 µM
[8] = Solubility in 100 mM glycylglycine buffer at pH 4.0 incubated for 18 hrs by UPLC analysis; assay type: physicochemical
[9] = Solubility in 100 mM glycylglycine buffer at pH 3.0 incubated for 18 hrs by UPLC analysis; assay type: physicochemical
[10] = target: T2, Amylin receptor AMY3; CALCR/RAMP3; assay: Agonist activity at human amylin receptor expressed in BHK570 cells co-expressing RAMP3 assessed as increase in intracellular cAMP concentration incubated for 3 hrs in presence of 10% FBS by CRE luciferase reporter gene assay; assay type: functional, cell-based
[11] = Solubility in 100 mM bistrispropane buffer at pH 6.5 incubated for 18 hrs by UPLC analysis; assay type: physicochemical
[12] = target: T3, Amylin receptor AMY3; CALCR/RAMP3 (Rattus norvegicus, UniProt P32214+Q9JJ73); assay: Displacement of [125I]-labeled rat amylin from rat amylin receptor expressed in BHK tkts13 cell membranes co-expressing RAMP3 incubated for 120 mins by scintillation proximity assay
T3 sequence (P32214 whole entry): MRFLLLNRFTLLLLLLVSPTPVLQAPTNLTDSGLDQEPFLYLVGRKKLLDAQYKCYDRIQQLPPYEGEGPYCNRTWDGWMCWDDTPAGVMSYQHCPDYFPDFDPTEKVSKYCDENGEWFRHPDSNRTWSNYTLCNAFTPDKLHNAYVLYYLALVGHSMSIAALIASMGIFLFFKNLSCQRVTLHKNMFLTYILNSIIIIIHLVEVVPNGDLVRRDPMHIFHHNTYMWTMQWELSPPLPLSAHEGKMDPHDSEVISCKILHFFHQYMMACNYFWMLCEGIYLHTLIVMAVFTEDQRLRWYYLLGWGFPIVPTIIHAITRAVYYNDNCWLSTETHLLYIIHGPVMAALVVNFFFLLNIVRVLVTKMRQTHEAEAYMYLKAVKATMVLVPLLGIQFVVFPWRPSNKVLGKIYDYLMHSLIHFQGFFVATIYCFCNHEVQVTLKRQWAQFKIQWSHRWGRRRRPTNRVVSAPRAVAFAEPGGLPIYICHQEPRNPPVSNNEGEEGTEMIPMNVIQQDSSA
T3 sequence (Q9JJ73 whole entry): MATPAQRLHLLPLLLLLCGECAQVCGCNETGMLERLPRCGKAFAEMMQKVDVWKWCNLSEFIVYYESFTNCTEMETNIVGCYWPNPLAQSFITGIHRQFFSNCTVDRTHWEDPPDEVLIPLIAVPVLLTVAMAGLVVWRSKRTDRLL

[13] = Solubility in 100 mM bistrispropane buffer at pH 7.0 incubated for 18 hrs by UPLC analysis; assay type: physicochemical
[14] = Solubility in 100 mM bistrispropane buffer at pH 8.0 incubated for 18 hrs by UPLC analysis; assay type: physicochemical
Calcitonin receptor [15] = target: T1, Calcitonin receptor; assay: Agonist activity at human calcitonin receptor expressed in BHK570 cells assessed as increase in intracellular cAMP concentration incubated for 3 hrs in presence of 10% FBS by CRE luciferase reporter gene assay; assay type: functional, cell-based
Rattus norvegicus [16] = assay: Reduction in food intake in Sprague-Dawley rat at 3 nmol/kg measured 0 to 24 hrs post dose relative to control; assay type: functional; parameters: scale not given: the % may be the effect or the level left
Rattus norvegicus [17] = assay: Reduction in food intake in Sprague-Dawley rat at 3 nmol/kg measured 24 to 48 hrs post dose relative to control; assay type: functional; parameters: scale not given: the % may be the effect or the level left
[18] = target: T2, Amylin receptor AMY3; CALCR/RAMP3; assay: Displacement of [125I]-labeled rat amylin from human amylin receptor expressed in BHK tkts13 whole cells co-expressing RAMP3 incubated for 60 mins by scintillation proximity assay; assay type: cell-based

Row | remaining at 1 µM [1] [%] | EC50 (Calcitonin receptor [2]) [nM] | solubility at 18 h [3] [µM] | solubility at 18 h [4] [µM] | solubility at 18 h [5] [µM] | EC50 [6] [nM] | Time [7] [h] | solubility at 18 h [8] [µM] | solubility at 18 h [9] [µM] | EC50 [10] [nM] | solubility at 18 h [11] [µM] | IC50 [12] [nM] | solubility at 18 h [13] [µM] | solubility at 18 h [14] [µM] | EC50 (Calcitonin receptor [15]) [nM] | IC50 [18] [nM] | Compound | Activity (Rattus norvegicus [16]) [%] | Activity (Rattus norvegicus [17]) [%]
1 | 100 | 0.031 | ≥ 200 | ≥ 200 | ≥ 200 | 0.022 | > 45 | ≥ 200 | ≥ 200 | 0.057 | ≥ 200 | 1.3 | ≥ 200 | ≥ 200 | 0.048 |  | CC(C)C[C@H](NC(=O)[C@H](C)NC(=O)[C@H](C)NC(=O)[C@@H](NC(=O)[C@H](CO)NC(=O)[C@H](CC(C)C)NC(=O)[C@H](CCC(=O)O)NC(=O)[C@H](CO)NC(=O)[C@H](C)N)[C@@H](C)O)C(=O)NCC(=O)N[C@@H](CCCNC(=N)N)C(=O)N[C@@H](CC(C)C)C(=O)N[C@@H](CO)C(=O)N[C@@H](C)C(=O)N[C@@H](CCCCNC(=O)CC[C@H](NC(=O)CCCCCCCCCCCCCCCCCCC(=O)O)C(=O)O)C(=O)N[C@@H](CC(C)C)C(=O)N[C@@H](Cc1cnc[nH]1)C(=O)N[C@@H](CCC(=O)O)C(=O)N[C@@H](CC(C)C)C(=O)N[C@@H](C)C(=O)N[C@H](C(=O)N[C@@H](CC(C)C)C(=O)N1CCC[C@H]1C(=O)N[C@@H](CCCNC(=N)N)C(=O)N[C@H](C(=O)N[C@@H](CCC(=O)O)C(=O)N[C@H](C(=O)NCC(=O)N[C@@H](CO)C(=O)NCC(=O)N[C@@H](CO)C(=O)N1CCC[C@H]1C(N)=O)[C@@H](C)O)[C@@H](C)O)[C@@H](C)O (H-ASELSTAALGRLSAK([γGlu-C20 diacid])LHELATLPRTETGSGSP-NH2) |  | 
2 | 100 | 0.014 | ≥ 200 | ≥ 200 | ≥ 200 | 0.013 | > 45 | ≥ 200 | ≥ 200 | 0.051 | ≥ 200 |  | ≥ 200 | ≥ 200 | 0.029 |  | CC(C)C[C@H](NC(=O)[C@H](C)NC(=O)[C@H](C)NC(=O)[C@@H](NC(=O)[C@H](CO)NC(=O)[C@H](CC(C)C)NC(=O)[C@H](CCC(=O)O)NC(=O)[C@H](CO)NC(=O)[C@H](C)NC(=O)CC[C@H](NC(=O)CCCCCCCCCCCCCCCCCCC(=O)O)C(=O)O)[C@@H](C)O)C(=O)NCC(=O)N[C@@H](CCCNC(=N)N)C(=O)N[C@@H](CC(C)C)C(=O)N[C@@H](CO)C(=O)N[C@@H](C)C(=O)N[C@@H](CCC(=O)O)C(=O)N[C@@H](CC(C)C)C(=O)N[C@@H](Cc1cnc[nH]1)C(=O)N[C@@H](CCC(=O)O)C(=O)N[C@@H](CC(C)C)C(=O)N[C@@H](C)C(=O)N[C@H](C(=O)N[C@@H](CC(C)C)C(=O)N1CCC[C@H]1C(=O)N[C@@H](CCCNC(=N)N)C(=O)N[C@H](C(=O)N[C@@H](CCC(=O)O)C(=O)N[C@H](C(=O)NCC(=O)N[C@@H](CO)C(=O)NCC(=O)N[C@@H](CO)C(=O)N1CCC[C@H]1C(N)=O)[C@@H](C)O)[C@@H](C)O)[C@@H](C)O ({C20 diacid-γGlu}-ASELSTAALGRLSAELHELATLPRTETGSGSP-NH2) | 49 | 79
3 | 100 | 0.028 | ≥ 200 | ≥ 200 | ≥ 200 | 0.047 | > 45 | ≥ 200 | ≥ 200 | 0.066 | ≥ 200 |  | ≥ 200 | ≥ 200 | 0.035 |  | CC(C)C[C@H](NC(=O)CNC(=O)[C@H](CO)NC(=O)[C@H](C)NC(=O)CC[C@H](NC(=O)CCCCCCCCCCCCCCCCCCC(=O)O)C(=O)O)C(=O)N[C@@H](CO)C(=O)N[C@H](C(=O)N[C@@H](C)C(=O)N[C@H](C(=O)N[C@@H](CC(C)C)C(=O)NCC(=O)N[C@@H](CCCNC(=N)N)C(=O)N[C@@H](CC(C)C)C(=O)N[C@@H](CO)C(=O)N[C@@H](C)C(=O)N[C@@H](CCC(=O)O)C(=O)N[C@@H](CC(C)C)C(=O)N[C@@H](Cc1cnc[nH]1)C(=O)N[C@@H](CCC(=O)O)C(=O)N[C@@H](CC(C)C)C(=O)N[C@@H](C)C(=O)N[C@H](C(=O)N[C@@H](Cc1ccc(O)cc1)C(=O)N1CCC[C@H]1C(=O)N[C@@H](CCCNC(=N)N)C(=O)N[C@H](C(=O)N[C@@H](CCC(=O)O)C(=O)N[C@H](C(=O)NCC(=O)N[C@@H](CO)C(=O)NCC(=O)N[C@H](C(=O)N1CCC[C@H]1C(N)=O)[C@@H](C)O)[C@@H](C)O)[C@@H](C)O)[C@@H](C)O)C(C)C)[C@@H](C)O ({C20 diacid-γGlu}-ASGLSTAVLGRLSAELHELATYPRTETGSGTP-NH2) | 52 | 57
4 | 90 | 0.04 |  | ≥ 200 |  | 0.052 | 8.4 |  | ≥ 200 |  | ≥ 200 | 0.091 | ≥ 200 | ≥ 200 | 0.142 | 1.48 | CC(C)C[C@H](NC(=O)CNC(=O)[C@H](CO)NC(=O)[C@H](C)NC(=O)CC[C@H](NC(=O)CCCCCCCCCCCCCCCCCCC(=O)O)C(=O)O)C(=O)N[C@@H](CO)C(=O)N[C@H](C(=O)N[C@@H](CC(C)C)C(=O)N[C@H](C(=O)N[C@@H](CC(C)C)C(=O)NCC(=O)N[C@@H](CCCNC(=N)N)C(=O)N[C@@H](CC(C)C)C(=O)N[C@@H](CO)C(=O)N[C@@H](CCC(N)=O)C(=O)N[C@@H](CCC(=O)O)C(=O)N[C@@H](CC(C)C)C(=O)N[C@@H](Cc1cnc[nH]1)C(=O)N[C@@H](CCC(=O)O)C(=O)N[C@@H](CC(C)C)C(=O)N[C@@H](CCC(N)=O)C(=O)N[C@H](C(=O)N[C@@H](Cc1ccc(O)cc1)C(=O)N1CCC[C@H]1C(=O)N[C@@H](CCCNC(=N)N)C(=O)N[C@H](C(=O)N[C@@H](CCC(=O)O)C(=O)N[C@H](C(=O)NCC(=O)N[C@@H](CO)C(=O)N[C@@H](CCC(N)=O)C(=O)N[C@H](C(=O)N[C@@H](Cc1ccc(O)cc1)C(N)=O)[C@@H](C)O)[C@@H](C)O)[C@@H](C)O)[C@@H](C)O)C(C)C)[C@@H](C)O ({C20 diacid-γGlu}-ASGLSTLVLGRLSQELHELQTYPRTETGSQTY-NH2) | 34 | 24
